This is an account of results in patent US5136090A, “Biphenyl-5,5'-bis-alkanoic acid derivatives, their production and aldose reductase inhibitors containing the same” (Toyo Jozo Kabushiki Kaisha, priority 1990, dated 1992).

In assay [1] the target is T1, partially purified bovine lens aldose reductase (Bos taurus, UniProt P16116).
T1 construct: partially purified bovine lens aldose reductase; from tissue; host or cells: bovine lens
Description: Inhibitory activity on aldose reductase enzyme reaction. Type of assay: biochemical. The following applies: for inhibition at 0.1 µg/mL: concentration 0.1 μg/ml; for inhibition at 1 µg/mL: concentration 1.0 μg/ml; for inhibition at 0.02 µg/mL: concentration 0.02 μg/ml. The protocol: The preparation of aldose reductase and the determination of its inhibitory action on enzyme reaction activity were carried out pursuant to the procedures disclosed by Haymann et al. in Journal of Biological Chemistry, 240, 877 (1965).
The sample solution to be examined for inhibitory activity was prepared by dissolving a compound of formula (I) according to the present invention in a small amount of methanol and increasing the volume of the resulting methanol solution by diluting it with distilled water up to tenfold volume. A partially purified bovine lens aldose reductase was used for the assay.
To 2.4 ml of a solution of 5×10^-5 M NADPH dissolved in a 2/15M phosphate buffer solution (pH 6.0), 0.4 ml of the enzyme solution (15 m units/ml) and 0.1 ml of the sample solution to be examined were added and the mixture was introduced into a quartz cell in a photoelectric photometer and subjected to pre-incubation at 37° C. for 4 mins. Then, 0.1 ml of a 0.015M D,L-glyceraldehyde solution was added thereto for initiating the enzyme reaction and the decrease in the optical absorption at 340 nm was measured at 37° C. for 4 mins. The inhibitory activity on aldose reductase was calculated by the following equation: [formula] in which A represents the enzyme reaction rate with addition of the inhibitor and B denotes the enzyme reaction rate without addition of the inhibitor.

Assay [2] deals with Lens. Description: Suppression of sorbitol accumulation in cultured lens. The assay is classed as cell-based, Wistar rats. The following applies: rat lens cultured 20 hours with 0.9% glucose; for inhibition at 5 µg/mL: concentration 5 μg/ml; for inhibition at 2.5 µg/mL: concentration 2.5 μg/ml. The protocol:
(§1) Lenses and sciatic nerves extirpated from Wistar rats, male, aged 7 weeks, were washed twice with an aseptic buffer solution consisting of 0.3% trisaminomethane, 0.8% NaCl, 0.038% KCl, 0.025% Na2 HPO4 ·12H2 O, 0.1% glucose and 1.85 ml/l of concentrated HCl.
(§2) The lenses and the sciatic nerves were then preincubated for 30 mins. in a culture medium prepared by adding 2 ml of 7.5% NaHCO3 aseptic solution and 5.5 ml of aseptic calf fetus serum to 100 ml of an aseptic culture medium of 0.98% TC Medium 199 (NISSUI Corp.) containing 0.01% of dihydrostreptomycin and 0.01% of benzylpenicillin. Thereafter, the intrinsic culture was effected in a culture medium prepared by adding each sample solution to be examined and 0.9% of glucose to the abovementioned culture medium and permitting culturing to proceed for 20 hours. The incubation was effected at 37° C. in an atmosphere composed of 95% air and 5% CO2.
(§3) After culturing, the cultured samples of lens and sciatic nerve were removed from the culture medium to filter paper and the weight of each of them was measured after the adherent culture solution had been blown off. Then, each of the cultured samples was homogenized with the addition of 1 ml of a cold 8% HClO4 solution and the homogenized mixture was subjected to centrifugation at 10,000 G for 10 mins., whereby a supernatant was obtained. The resulting precipitate was then homogenized again with addition thereto of 0.5 ml of cold 8% HClO4 solution and the homogenized mixture was again subjected to centrifugation in a similar way as above to obtain a further supernatant. This was combined with the previously obtained supernatant and the resulting solution was neutralized with 2N KOH aq. solution and was supplemented with distilled water to a volume of 5 ml. The precipitate formed by neutralization was separated by centrifugation at 3,000 rpm for 10 mins. and the resulting supernatant was employed as the sample for determining the sorbitol content.
(§4) The determination of the sorbitol content in the lens and in the sciatic nerve was carried out in accordance with the method of Bergmeyer in "Methods of Enzymatic Analysis" edited by H. U. Bergmeyer, pp 1323-1326, Academic Press, New York, 1974 and in accordance with the method of Malaon et al. in "Diabetes" 29, 861-864 (1980).
(§5) To 0.5 ml cf the sample solution for determination of sorbitol content obtained as above, 0.9 ml of 0.1M glycine-KOH buffer solution (pH 9.4) containing 1 mM of NAD^+ and 0.1 ml of a solution of sorbitol dehydrogenase of 20 units/ml were added and the resulting mixture was subjected to incubation at 37° C. for 1 hour.
(§6) The content of sorbitol in each tissue was estimated by assuming the increment of the optical absorption at 340 nm to be proportional to the amount of NADH produced by the reaction for the lens and by detecting the fluorescence with an excitation wavelength of 366 nm and a fluorescence wavelength of 425 nm for the sciatic nerve.
(§7) The activity for suppressing accumulation of sorbitol, i.e. the aldose reductase inhibiting activity, was calculated from the determined sorbitol content by the calculation formula [formula] in which A denotes the content of sorbitol per unit weight of the tissue after cultivation with addition of the inhibitor, B denotes the sorbitol content per unit weight of the tissue after cultivation without addition of the inhibitor and C represents the sorbitol content per unit weight of the tissue after cultivation in the medium without addition of glucose and inhibitor.

In assay [3] the test system is Sciatic Nerve. Description: Suppression of sorbitol accumulation in cultured sciatic nerve. Type of assay: cell-based, Wistar rats. The following applies: concentration 1.0 μg/ml, rat sciatic nerve cultured 20 hours with 0.9% glucose; for inhibition at 1 µg/mL: Rattus norvegicus, 20 h. The protocol: as §1, §2, §3, §4, §5, §6, §7

The term inhibition denotes the share of the control response that was lost under treatment. Read a high inhibition as a response far below the control. Turning to `O=C(O)CCc1ccc(O)c(-c2cc(CCC(=O)O)ccc2OCc2ccccc2)c1` [Example 1, 2-benzyloxy-2'-hydroxy-5,5'-bis (2carboxyethyl) biphenyl], in assay [1], the inhibition at 0.1 µg/mL is 60.8% and 1 µg/mL produced 92.8% inhibition. The inhibition at 5 µg/mL in assay [2] was found to be 69.9%. In assay [3], this compound displayed an inhibition at 1 µg/mL of 64.6%.
In assay [1], `O=C(O)CCc1ccc(O)c(-c2cc(CCC(=O)O)ccc2OCc2ccc(Br)cc2F)c1` [Example 2, 2-(2-fluoro-4-bromobenzyloxy)-2'-hydroxy-5,5'-bis (2-carboxyethyl) biphenyl] registered an inhibition at 0.1 µg/mL of 54% and an inhibition at 1 µg/mL of 89.1%.
For `O=C(O)CCc1ccc(O)c(-c2cc(CCC(=O)O)ccc2OCC2CCCCC2)c1` [Example 3, 2-cyclohexylmethoxy-2'-hydroxy-5,5'-bis (2-carboxyethyl) biphenyl], in assay [1], testing at 0.1 µg/mL gave an inhibition of 73.6% and at 1 µg/mL the inhibition was 91.9%. Besides, in assay [2], at 2.5 µg/mL the inhibition was 44.7% and the inhibition at 5 µg/mL was determined as 85.2%. In assay [3], 1 µg/mL produced 73.2% inhibition and the “Inhibition of sorbitol Accumulation (%) Sciatic Nerve” value was 64.8%.
In assay [1], `O=C(O)CCc1ccc(O)c(-c2cc(CCC(=O)O)ccc2OCC2CCCCO2)c1` (stereo not shown) [Example 4, 2-(tetrahydro-2H-pyran-2-yl) methoxy-2'-hydroxy-5,5'-bis (2-carboxyethyl) biphenyl] came in with an inhibition at 0.1 µg/mL of 50.4% and an inhibition at 1 µg/mL of 88.2%.
As to `CCCOc1ccc(CCC(=O)O)cc1-c1cc(CCC(=O)O)ccc1O` [Example 5, 2-propoxy-2'-hydroxy-5,5'-bis (2carboxyethyl) biphenyl], in assay [1], the inhibition at 0.1 µg/mL was 73.6% and the inhibition at 1 µg/mL turned out to be 90%. Further, in assay [2], at 2.5 µg/mL the inhibition was 32.7% and the inhibition at 5 µg/mL was determined as 79.2%. Besides, in assay [3], at 1 µg/mL the inhibition was 73.3% and the “Inhibition of sorbitol Accumulation (%) Sciatic Nerve” value was 73.8%.
On to `CCCCOc1ccc(CCC(=O)O)cc1-c1cc(CCC(=O)O)ccc1O` [Example 6, 2-butoxy-2'-hydroxy-5,5'-bis (2-carboxyethyl) biphenyl], for which, in assay [1], the inhibition at 0.1 µg/mL is 58.6% and the inhibition at 1 µg/mL was found to be 90%.
The matching figures for `CCCCCOc1ccc(CCC(=O)O)cc1-c1cc(CCC(=O)O)ccc1O` [Example 7, 2-pentyloxy-2'-hydroxy-5,5'-bis (2carboxyethyl) biphenyl]: 56.4% and 90.9%.
The matching figures for `CCCCCCOc1ccc(CCC(=O)O)cc1-c1cc(CCC(=O)O)ccc1O` [Example 8, 2-hexyloxy-2'-hydroxy-5,5'-bis (2carboxyethyl) biphenyl]: 58.6% and 91.9%.
In turn, `CCCCCCCCCCCOc1ccc(CCC(=O)O)cc1-c1cc(CCC(=O)O)ccc1O` [Example 11, 2-undecyloxy-2'-hydroxy-5,5'-bis (2-carboxyethyl) biphenyl] gave an inhibition at 0.1 µg/mL in assay [1] of 81.5%. Besides, the inhibition at 1 µg/mL amounted to 92.8% in assay [1] and 34.7% in assay [3].
In assay [1], `O=C(O)CCCOc1ccc(CCC(=O)O)cc1-c1cc(CCC(=O)O)ccc1O` [Example 13, 2-(3-carboxypropoxy)-2'-hydroxy-5, 5'-bis (2-carboxyethyl) biphenyl] had an inhibition at 0.1 µg/mL of 60.6% and an inhibition at 1 µg/mL of 95.2%.
In assay [1], `O=C(O)CCc1ccc(O)c(-c2cc(CCC(=O)O)ccc2OCCc2ccccc2)c1` [Example 14, 2-phenethyloxy-2'-hydroxy-5, 5'-bis (2-carboxyethyl) biphenyl] came in with an inhibition at 0.1 µg/mL of 52.4% and an inhibition at 1 µg/mL of 90.5%. The inhibition at 1 µg/mL in assay [3] is 62.4%.
In assay [1], `O=C(O)CCc1ccc(O)c(-c2cc(CCC(=O)O)ccc2OC2CCCCC2)c1` [Example 15, 2-cyclohexyloxy-2'-hydroxy-5, 5'-bis (2-carboxyethyl) biphenyl] had an inhibition at 0.1 µg/mL of 47.6% and an inhibition at 1 µg/mL of 89.6%. The inhibition at 1 µg/mL in assay [3] was 43.2%.
On to `O=C(O)CCCc1ccc(O)c(-c2cc(CCCC(=O)O)ccc2OCc2ccccc2)c1` [Example 18, 2-benzyloxy-2'-hydroxy-5,5'-bis (3-carboxypropyl) biphenyl], for which, in assay [1], at 0.02 µg/mL the inhibition was 22% and 0.1 µg/mL produced 60.6% inhibition.
The corresponding values for `O=C(O)CCCc1ccc(O)c(-c2cc(CCCC(=O)O)ccc2OCc2ccc(Br)cc2F)c1` [Example 19, 2-(2-fluoro-4-bromobenzyloxy)-2'-hydroxy-5, 5'-bis (3-carboxypropyl) biphenyl] are 23.8% and 62.6%.
On to `O=C(O)CCCc1ccc(O)c(-c2cc(CCCC(=O)O)ccc2OCC2CCCCC2)c1` [Example 20, 2-cyclohexylmethoxy-2'-hydroxy-5, 5'-bis (3-carboxypropyl) biphenyl], for which, in assay [1], at 0.02 µg/mL the inhibition was 18.7% and testing at 0.1 µg/mL gave an inhibition of 73.1%. Moreover, in assay [3], the inhibition at 1 µg/mL was 51.5%.
In assay [1], `CCOc1ccc(CCCC(=O)O)cc1-c1cc(CCCC(=O)O)ccc1O` [Example 22, 2-ethoxy-2'-hydroxy-5,5'-bis (3-carboxypropyl) biphenyl] came in with an inhibition at 0.02 µg/mL of 27.2% and an inhibition at 0.1 µg/mL of 63.9%.
The corresponding values for `CCCCOc1ccc(CCCC(=O)O)cc1-c1cc(CCCC(=O)O)ccc1O` [Example 24, 2-butoxy-2'-hydroxy-5,5'-bis (3-carboxypropyl) biphenyl] are 25.6% and 62.6%.
As for `CCCCCCCOc1ccc(CCCC(=O)O)cc1-c1cc(CCCC(=O)O)ccc1O` [Example 25, 2-heptyloxy-2'-hydroxy-5,5'-bis (3-carboxypropyl) biphenyl], in assay [1], testing at 0.02 µg/mL gave an inhibition of 20.5% and testing at 0.1 µg/mL gave an inhibition of 69.2%.
For `CCCCCCCCOc1ccc(CCCC(=O)O)cc1-c1cc(CCCC(=O)O)ccc1O` [Example 26, 2-octyloxy-2'-hydroxy-5,5'-bis (3-carboxypropyl) biphenyl], in assay [1], 0.02 µg/mL produced 35.3% inhibition and 0.1 µg/mL produced 73.1% inhibition. In addition, in assay [3], the inhibition at 1 µg/mL was found to be 43.3%.
In assay [1], `CC(C)CCOc1ccc(CCCC(=O)O)cc1-c1cc(CCCC(=O)O)ccc1O` [Example 27, 2-isopentyloxy-2'-hydroxy-5, 5'-bis (3-carboxypropyl) biphenyl] registered an inhibition at 0.02 µg/mL of 23.8% and an inhibition at 0.1 µg/mL of 61.2%.
In assay [1], `O=C(O)CCCc1ccc(O)c(-c2cc(CCCC(=O)O)ccc2OCCCCl)c1` [Example 28, 2-(3-chloropropoxy)-2'-hydroxy-5, 5'-bis (3-carboxypropyl) biphenyl] showed an inhibition at 0.02 µg/mL of 28.8% and an inhibition at 0.1 µg/mL of 71.7%. The inhibition at 1 µg/mL in assay [3] is 69%.
